Our source for the IC50 and Ki values is ChEMBL document CHEMBL1155249, “Molecular modifications on carboxylic acid derivatives as potent histone deacetylase inhibitors: Activity and docking studies” (Bioorg Med Chem, 2009).

The target of this assay is Histone deacetylase. Kind of assay: Inhibition of HDAC in human Hela cells nuclear extracts by fluorimetric assay. The assay is classed as cell-based.
One may read the IC50 as the point on the concentration scale where inhibition reaches its midpoint. The Ki is a dissociation constant, usually derived from enzyme kinetics or from competition with a known ligand. A low value points to higher affinity. As to `O=C(O)/C=C/c1ccc(O)c(O)c1` [CAFFEIC ACID], the IC50 amounted to 2540 µM and the Ki was determined as 10.84 µM.
In the case of `NCCCC(=O)O` [GAMMA-AMINOBUTYRIC ACID], the Ki was determined as 8.19 µM.
In the case of `O=C(O)/C=C/c1ccccc1` [CINNAMIC ACID], the inhibitory constant (Ki) was found to be 0.00821 µM.
Consider `CCCC(=O)O` [BUTYRIC ACID], for which the inhibitory constant (Ki) stood at 136 µM.
`O=C([O-])CCCc1ccccc1.[Na+]` [SODIUM PHENYLBUTYRATE] registered a Ki of 6.34 µM.
On to `O=C(/C=C/c1ccc(O)c(O)c1)O[C@@H]1C[C@](O)(C(=O)O)C[C@@H](O)[C@H]1O` [CHLOROGENIC ACID], for which the IC50 came out at 375 µM and the Ki is 0.135 µM.
In the case of `CCCC(=O)[O-].[Na+]` [SODIUM BUTYRATE], the IC50 stood at 800 µM and the Ki came out at 365 µM.
